Experiments:
[1] = system: Body Twist Reaction Induced by Acetic Acid; experiment: Acetic acid induced body twist reaction (chemical stimuli induced pain); conditions: mouse
[2] = system: Carrageenan Induced Rat Foot Swelling; experiment: Carrageenan induced rat foot swelling; assay type: in vivo
Excerpt: Divide the rats randomly into five groups, with each group consisting of ten rats. […] Use carrageenan induced inflammation to cause rat plantar swelling.

Rat Gastric Mucosa Ulcer = experiment: Side effects of causing rat gastric mucosa ulcer; conditions: four successive days
[3] = system: Adjuvant Induced Rat Foot Swelling; experiment: Adjuvant induced rat foot swelling (primary and secondary inflammation); assay type: in vivo
[4] = system: Dimethylbenzene Induced Mouse Ear Swelling; experiment: Dimethylbenzene induced mouse ear swelling
Excerpt: Divide the mice randomly into five groups, with each team consisting of ten mice. […] Dimethylbenzene was used to induce ear swelling of the mice.

Cc1cnc(NC(=O)C2=C(O)c3sc(Cl)cc3S(=O)(=O)N2C)s1 [Example 1, 6-chlorine-4-hydroxy-2-methyl-N-[2′-(5′-methyl)thiazolyl]-2H-thieno-[2,3-e]-1,2-thiazine-3-formamide-1,1-dioxide]
Numbers of Occurrence of Body Twist (x ± s) ([1]; 2.0 mg/kg oral): 14.78 ± 6.38 | Percentage of Body Twist ([1]; 2.0 mg/kg oral): 90% | Numbers of Occurrence of Body Twist (x ± s) ([1]; 4.0 mg/kg oral): 10.78 ± 8.15 | Percentage of Body Twist ([1]; 4.0 mg/kg oral): 80% | Numbers of Occurrence of Body Twist (x ± s) ([1]; 8.0 mg/kg oral): 2.78 ± 3.49 | Percentage of Body Twist ([1]; 8.0 mg/kg oral): 60% | Change in the Foot Volume after Giving the Carrageenan ([2]; 1.0 mg/kg, five hours): 0.83 ± 0.28 | Change in the Foot Volume after Giving the Carrageenan ([2]; 1.0 mg/kg, four hours): 0.76 ± 0.28 | Change in the Foot Volume after Giving the Carrageenan ([2]; 1.0 mg/kg, one hour): 0.25 ± 0.15 | Change in the Foot Volume after Giving the Carrageenan ([2]; 1.0 mg/kg, six hours): 0.83 ± 0.25 | Change in the Foot Volume after Giving the Carrageenan ([2]; 1.0 mg/kg, three hours): 0.66 ± 0.34 | Change in the Foot Volume after Giving the Carrageenan ([2]; 1.0 mg/kg, two hours): 0.56 ± 0.27 | Change in the Foot Volume after Giving the Carrageenan ([2]; 2.0 mg/kg, five hours): 0.79 ± 0.25 | Change in the Foot Volume after Giving the Carrageenan ([2]; 2.0 mg/kg, four hours): 0.70 ± 0.25 | Change in the Foot Volume after Giving the Carrageenan ([2]; 2.0 mg/kg, one hour): 0.24 ± 0.11 | Change in the Foot Volume after Giving the Carrageenan ([2]; 2.0 mg/kg, six hours): 0.80 ± 0.21 | Change in the Foot Volume after Giving the Carrageenan ([2]; 2.0 mg/kg, three hours): 0.63 ± 0.54 | Change in the Foot Volume after Giving the Carrageenan ([2]; 2.0 mg/kg, two hours): 0.39 ± 0.17 | Change in the Foot Volume after Giving the Carrageenan ([2]; 4.0 mg/kg, five hours): 0.60 ± 0.31 | Change in the Foot Volume after Giving the Carrageenan ([2]; 4.0 mg/kg, four hours): 0.59 ± 0.30 | Change in the Foot Volume after Giving the Carrageenan ([2]; 4.0 mg/kg, one hour): 0.29 ± 0.20 | Change in the Foot Volume after Giving the Carrageenan ([2]; 4.0 mg/kg, six hours): 0.64 ± 0.24 | Change in the Foot Volume after Giving the Carrageenan ([2]; 4.0 mg/kg, three hours): 0.50 ± 0.20 | Change in the Foot Volume after Giving the Carrageenan ([2]; 4.0 mg/kg, two hours): 0.37 ± 0.22 | effectiveness on carrageenan induced plantar swelling compared with Meloxicam ([2]; 1, 2, 4 mg/kg vs Meloxicam 4 mg/kg): substantially more effective than the positive medicine Meloxicam | Ulcer Occurring Rate (Rat Gastric Mucosa Ulcer; 1 mg/kg oral): 0% | Ulcer Occurring Rate (Rat Gastric Mucosa Ulcer; 2 mg/kg oral): 30% | Ulcer Occurring Rate (Rat Gastric Mucosa Ulcer; 4 mg/kg oral): 80% | Rate of the Change in the Volume of Left and Right Feet after Giving Adjuvant ([3]; 1.0 mg/kg oral, 18 hours): 0.77 ± 0.28 | Rate of the Change in the Volume of Left and Right Feet after Giving Adjuvant ([3]; 1.0 mg/kg oral, 24 hours): 0.75 ± 0.24 | Rate of the Change in the Volume of Left and Right Feet after Giving Adjuvant ([3]; 1.0 mg/kg oral, 3 days): 0.74 ± 0.28 | Rate of the Change in the Volume of Left and Right Feet after Giving Adjuvant ([3]; 1.0 mg/kg oral, 8 days): 0.75 ± 0.29 | Rate of the Change in the Volume of Left and Right Feet after Giving Adjuvant ([3]; 1.0 mg/kg oral, 19 days): 0.97 ± 0.19 | Rate of the Change in the Volume of Left and Right Feet after Giving Adjuvant ([3]; 2.0 mg/kg oral, 18 hours): 0.62 ± 0.10 | Rate of the Change in the Volume of Left and Right Feet after Giving Adjuvant ([3]; 2.0 mg/kg oral, 24 hours): 0.60 ± 0.10 | Rate of the Change in the Volume of Left and Right Feet after Giving Adjuvant ([3]; 2.0 mg/kg oral, 3 days): 0.61 ± 0.13 | Rate of the Change in the Volume of Left and Right Feet after Giving Adjuvant ([3]; 2.0 mg/kg oral, 8 days): 0.60 ± 0.14 | Rate of the Change in the Volume of Left and Right Feet after Giving Adjuvant ([3]; 2.0 mg/kg oral, 19 days): 0.69 ± 1.10 | Rate of the Change in the Volume of Left and Right Feet after Giving Adjuvant ([3]; 4.0 mg/kg oral, 18 hours): 0.65 ± 0.08 | Rate of the Change in the Volume of Left and Right Feet after Giving Adjuvant ([3]; 4.0 mg/kg oral, 24 hours): 0.65 ± 0.12 | Rate of the Change in the Volume of Left and Right Feet after Giving Adjuvant ([3]; 4.0 mg/kg oral, 3 days): 0.53 ± 0.13 | Rate of the Change in the Volume of Left and Right Feet after Giving Adjuvant ([3]; 4.0 mg/kg oral, 8 days): 0.63 ± 0.16 | Rate of the Change in the Volume of Left and Right Feet after Giving Adjuvant ([3]; 4.0 mg/kg oral, 19 days): 0.72 ± 1.12 | inhibition of the primary and secondary inflammation induced by adjuvant ([3]; 1, 2, 4 mg/kg oral): dosage dependent inhibition | Rate of Ear Swelling (x ± s) ([4]; 2 mg/kg oral): 0.56 ± 0.35 | inhibition rate (ear swelling) ([4]; 2 mg/kg oral): 56% | Rate of Ear Swelling (x ± s) ([4]; 4 mg/kg oral): 0.67 ± 0.43 | inhibition rate (ear swelling) ([4]; 4 mg/kg oral): 67% | Rate of Ear Swelling (x ± s) ([4]; 8 mg/kg oral): 0.81 ± 0.26 | inhibition rate (ear swelling) ([4]; 8 mg/kg oral): 81%

Cc1cnc(NC(=O)C2=C(O)c3ccccc3S(=O)(=O)N2C)s1 [Meloxicam, reference compound]
Numbers of Occurrence of Body Twist (x ± s) ([1]; 8.0 mg/kg oral): 18.11 ± 14.37 | Percentage of Body Twist ([1]; 8.0 mg/kg oral): 100% | Rate of Ear Swelling (x ± s) ([4]; 8 mg/kg oral): 0.43 ± 0.36 | inhibition rate (ear swelling) ([4]; 8 mg/kg oral): 43%

— US7125868B2, “Thienothiazine compound having anti-inflammatory and analgesic properties and method of making and using the same” (priority 2001, dated 2006)
